Columns and labels:
Type in all cases: biochemical
Lck = molecular target: T1, Lck (Homo sapiens, UniProt P06239); assay: Kinase inhibition assay (33P transfer), Lck; conditions: Table 3; read-out: Lck-1
T1 construct: Kinases are expressed as either kinase domains or full length constructs; made in house
Summary of the method: (§1)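 Steps: express kinase as GST or polyHistidine fusion in E. coli or High Five cells; optionally co-express or mix with regulatory polypeptides; incubate with 33P-ATP and plate-attached poly(Glu,Tyr) 4:1 or poly(Arg,Ser) 3:1; wash with 0.5% phosphoric acid; count by liquid scintillation.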

Lyn = molecular target: T2, Lyn (Homo sapiens, UniProt P07948); assay: Kinase inhibition assay (33P transfer), Lyn; conditions: Table 6, Lyn-1 kinase inhibition class
T2 construct: Kinases are expressed as either kinase domains or full length constructs; made in house
Summary of the method: (§2)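 Each enzyme, purified to near homogeneity by affinity chromatography, was incubated with ATP carrying 33P and a substrate polymer fixed to the plate. Unbound label was removed with dilute phosphoric acid (0.5%) before adding scintillant and counting. Potency is given as the compound level cutting label uptake by 50%.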

Fyn = molecular target: T3, Fyn (Homo sapiens, UniProt P06241); assay: Kinase inhibition assay (33P transfer), Fyn; conditions: read-out: Fyn-1
T3 construct: Kinases are expressed as either kinase domains or full length constructs; made in house
Summary of the method: as §2

EGFR = molecular target: T4, EGFR (Homo sapiens, UniProt P00533); assay: Kinase inhibition assay (33P transfer), EGFR; conditions: Table 2, kinase inhibition class; read-out: EGFR-1
T4 construct: Kinases are expressed as either kinase domains or full length constructs; made in house
Summary of the method: as §2

Flt-1 = molecular target: T5, Flt-1 (Homo sapiens, UniProt P17948); assay: Kinase inhibition assay (33P transfer), Flt-1
T5 construct: Kinases are expressed as either kinase domains or full length constructs; made in house
Summary of the method: as §2

Tek = molecular target: T6, Tek (Homo sapiens, UniProt Q02763); assay: Kinase inhibition assay (33P transfer), Tek; conditions: read-out: Tek-1
T6 construct: Kinases are expressed as either kinase domains or full length constructs; made in house
Summary of the method: as §2

c-Met = molecular target: T7, c-Met (Homo sapiens, UniProt P08581); assay: Kinase inhibition assay (33P transfer), c-Met; conditions: Table 2, kinase inhibition class; read-out: Met-1
T7 construct: Kinases are expressed as either kinase domains or full length constructs; made in house
Summary of the method: as §2

AKT = molecular target: T8, AKT (Homo sapiens, UniProt Q9Y243); assay: Kinase inhibition assay (33P transfer), AKT; conditions: Table 2, kinase inhibition class; read-out: AKT3-1
T8 construct: Kinases are expressed as either kinase domains or full length constructs; made in house
Summary of the method: as §1

IGFR-1 = molecular target: T9, IGFR-1 (Homo sapiens, UniProt P08069); assay: Kinase inhibition assay (33P transfer), IGFR-1; conditions: Table 2, kinase inhibition class
T9 construct: Kinases are expressed as either kinase domains or full length constructs; made in house

EPHB4 = molecular target: T10, EPHB4 (Homo sapiens, UniProt P54760); assay: Kinase inhibition assay (33P transfer), EPHB4; conditions: read-out: EPHB4-1
T10 construct: Kinases are expressed as either kinase domains or full length constructs; made in house
T10 sequence (P54760 16-987): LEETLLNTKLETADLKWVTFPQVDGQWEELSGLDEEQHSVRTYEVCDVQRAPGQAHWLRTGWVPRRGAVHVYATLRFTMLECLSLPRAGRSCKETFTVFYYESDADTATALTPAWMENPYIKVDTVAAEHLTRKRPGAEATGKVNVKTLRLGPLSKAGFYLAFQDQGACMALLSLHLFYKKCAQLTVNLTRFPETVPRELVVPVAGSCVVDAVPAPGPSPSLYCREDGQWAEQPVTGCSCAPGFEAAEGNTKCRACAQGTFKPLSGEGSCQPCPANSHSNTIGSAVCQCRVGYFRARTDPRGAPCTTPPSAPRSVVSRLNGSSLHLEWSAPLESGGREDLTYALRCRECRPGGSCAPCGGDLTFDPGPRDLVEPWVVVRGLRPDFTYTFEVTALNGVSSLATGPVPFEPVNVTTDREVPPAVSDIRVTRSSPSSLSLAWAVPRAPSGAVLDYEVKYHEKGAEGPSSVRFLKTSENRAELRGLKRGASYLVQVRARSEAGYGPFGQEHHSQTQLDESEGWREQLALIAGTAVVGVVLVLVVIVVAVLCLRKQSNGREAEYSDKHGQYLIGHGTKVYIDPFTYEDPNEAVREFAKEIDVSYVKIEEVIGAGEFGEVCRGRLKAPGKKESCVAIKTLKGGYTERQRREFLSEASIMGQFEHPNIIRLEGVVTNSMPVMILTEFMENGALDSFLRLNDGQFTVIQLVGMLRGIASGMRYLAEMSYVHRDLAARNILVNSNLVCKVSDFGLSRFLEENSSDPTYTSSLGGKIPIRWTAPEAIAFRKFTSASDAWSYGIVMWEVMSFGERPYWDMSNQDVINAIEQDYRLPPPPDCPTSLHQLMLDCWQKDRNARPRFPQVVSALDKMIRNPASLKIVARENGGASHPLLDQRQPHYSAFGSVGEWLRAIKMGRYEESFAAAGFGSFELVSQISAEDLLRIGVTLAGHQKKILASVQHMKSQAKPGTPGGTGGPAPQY

ErbB4 = molecular target: T11, ErbB4 (Homo sapiens, UniProt Q15303); assay: Kinase inhibition assay (33P transfer), ErbB4; conditions: read-out: ErbB4-1
T11 construct: Kinases are expressed as either kinase domains or full length constructs; made in house

Ret-1 = molecular target: T12, Ret-1 (Homo sapiens, UniProt P07949); assay: Kinase inhibition assay (33P transfer), Ret; conditions: Table 6, Ret-1 kinase inhibition class
T12 construct: Kinases are expressed as either kinase domains or full length constructs; made in house

FGFR1 = molecular target: T13, FGFR1 (Homo sapiens, UniProt P11362); assay: Kinase inhibition assay (33P transfer), FGFR1; conditions: read-out: FGFR1-1
T13 construct: Kinases are expressed as either kinase domains or full length constructs; made in house
T13 sequence (P11362 22-822, species assumed): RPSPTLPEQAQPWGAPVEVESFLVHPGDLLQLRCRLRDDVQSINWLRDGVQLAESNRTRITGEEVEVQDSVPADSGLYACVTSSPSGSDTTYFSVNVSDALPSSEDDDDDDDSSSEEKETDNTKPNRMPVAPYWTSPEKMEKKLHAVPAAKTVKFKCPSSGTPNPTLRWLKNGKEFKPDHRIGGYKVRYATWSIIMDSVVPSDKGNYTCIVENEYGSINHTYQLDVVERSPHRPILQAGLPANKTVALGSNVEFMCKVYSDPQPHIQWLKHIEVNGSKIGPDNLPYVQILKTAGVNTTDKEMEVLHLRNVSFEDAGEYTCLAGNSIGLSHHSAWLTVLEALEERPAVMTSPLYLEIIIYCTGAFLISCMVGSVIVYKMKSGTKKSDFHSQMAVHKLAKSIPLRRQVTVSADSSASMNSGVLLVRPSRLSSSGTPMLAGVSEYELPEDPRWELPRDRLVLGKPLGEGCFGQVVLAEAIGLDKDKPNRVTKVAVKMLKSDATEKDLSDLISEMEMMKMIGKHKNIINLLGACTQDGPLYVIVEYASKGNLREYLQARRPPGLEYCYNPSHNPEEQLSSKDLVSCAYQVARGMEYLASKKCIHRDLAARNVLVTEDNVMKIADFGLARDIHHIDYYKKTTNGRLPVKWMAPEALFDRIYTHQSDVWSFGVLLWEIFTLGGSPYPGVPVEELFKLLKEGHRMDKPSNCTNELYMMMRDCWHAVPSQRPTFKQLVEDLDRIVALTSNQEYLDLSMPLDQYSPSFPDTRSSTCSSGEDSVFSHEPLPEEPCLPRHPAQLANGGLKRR

T7 sequence (P08581 25-1390): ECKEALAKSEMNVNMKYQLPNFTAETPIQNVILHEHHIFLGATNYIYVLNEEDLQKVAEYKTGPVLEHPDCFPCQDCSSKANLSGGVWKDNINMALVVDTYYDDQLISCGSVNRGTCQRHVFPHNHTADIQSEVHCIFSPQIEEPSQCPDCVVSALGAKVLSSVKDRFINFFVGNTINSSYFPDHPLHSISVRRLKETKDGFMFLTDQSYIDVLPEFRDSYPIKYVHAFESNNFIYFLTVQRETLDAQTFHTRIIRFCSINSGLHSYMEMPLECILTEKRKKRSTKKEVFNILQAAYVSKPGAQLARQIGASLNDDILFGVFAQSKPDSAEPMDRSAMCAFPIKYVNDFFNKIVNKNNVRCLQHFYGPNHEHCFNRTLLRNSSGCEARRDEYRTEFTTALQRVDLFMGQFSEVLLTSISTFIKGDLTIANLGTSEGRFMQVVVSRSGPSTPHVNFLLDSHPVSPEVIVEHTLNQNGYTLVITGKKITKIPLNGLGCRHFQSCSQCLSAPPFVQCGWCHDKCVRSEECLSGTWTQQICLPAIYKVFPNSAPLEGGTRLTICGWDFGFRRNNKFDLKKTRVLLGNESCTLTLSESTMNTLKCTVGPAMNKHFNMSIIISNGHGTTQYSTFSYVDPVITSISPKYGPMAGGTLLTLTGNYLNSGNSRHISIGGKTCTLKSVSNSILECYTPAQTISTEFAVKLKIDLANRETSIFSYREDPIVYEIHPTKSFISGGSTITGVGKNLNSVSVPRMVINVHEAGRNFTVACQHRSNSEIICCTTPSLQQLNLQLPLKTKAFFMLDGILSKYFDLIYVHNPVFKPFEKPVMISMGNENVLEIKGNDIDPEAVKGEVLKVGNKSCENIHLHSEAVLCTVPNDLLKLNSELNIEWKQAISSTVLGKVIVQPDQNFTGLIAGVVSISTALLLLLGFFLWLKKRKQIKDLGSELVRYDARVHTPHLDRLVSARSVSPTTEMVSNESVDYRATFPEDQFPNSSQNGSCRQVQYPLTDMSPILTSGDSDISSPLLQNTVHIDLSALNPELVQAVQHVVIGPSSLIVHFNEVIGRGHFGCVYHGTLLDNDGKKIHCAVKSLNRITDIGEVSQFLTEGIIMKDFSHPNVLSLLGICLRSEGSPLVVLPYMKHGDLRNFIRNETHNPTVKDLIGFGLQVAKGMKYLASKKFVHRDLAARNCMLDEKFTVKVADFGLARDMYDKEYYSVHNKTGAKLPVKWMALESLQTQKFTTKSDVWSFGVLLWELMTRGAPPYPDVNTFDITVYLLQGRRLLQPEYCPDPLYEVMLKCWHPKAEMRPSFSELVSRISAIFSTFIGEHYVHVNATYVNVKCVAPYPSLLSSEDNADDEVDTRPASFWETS
T12 sequence (P07949 29-1114): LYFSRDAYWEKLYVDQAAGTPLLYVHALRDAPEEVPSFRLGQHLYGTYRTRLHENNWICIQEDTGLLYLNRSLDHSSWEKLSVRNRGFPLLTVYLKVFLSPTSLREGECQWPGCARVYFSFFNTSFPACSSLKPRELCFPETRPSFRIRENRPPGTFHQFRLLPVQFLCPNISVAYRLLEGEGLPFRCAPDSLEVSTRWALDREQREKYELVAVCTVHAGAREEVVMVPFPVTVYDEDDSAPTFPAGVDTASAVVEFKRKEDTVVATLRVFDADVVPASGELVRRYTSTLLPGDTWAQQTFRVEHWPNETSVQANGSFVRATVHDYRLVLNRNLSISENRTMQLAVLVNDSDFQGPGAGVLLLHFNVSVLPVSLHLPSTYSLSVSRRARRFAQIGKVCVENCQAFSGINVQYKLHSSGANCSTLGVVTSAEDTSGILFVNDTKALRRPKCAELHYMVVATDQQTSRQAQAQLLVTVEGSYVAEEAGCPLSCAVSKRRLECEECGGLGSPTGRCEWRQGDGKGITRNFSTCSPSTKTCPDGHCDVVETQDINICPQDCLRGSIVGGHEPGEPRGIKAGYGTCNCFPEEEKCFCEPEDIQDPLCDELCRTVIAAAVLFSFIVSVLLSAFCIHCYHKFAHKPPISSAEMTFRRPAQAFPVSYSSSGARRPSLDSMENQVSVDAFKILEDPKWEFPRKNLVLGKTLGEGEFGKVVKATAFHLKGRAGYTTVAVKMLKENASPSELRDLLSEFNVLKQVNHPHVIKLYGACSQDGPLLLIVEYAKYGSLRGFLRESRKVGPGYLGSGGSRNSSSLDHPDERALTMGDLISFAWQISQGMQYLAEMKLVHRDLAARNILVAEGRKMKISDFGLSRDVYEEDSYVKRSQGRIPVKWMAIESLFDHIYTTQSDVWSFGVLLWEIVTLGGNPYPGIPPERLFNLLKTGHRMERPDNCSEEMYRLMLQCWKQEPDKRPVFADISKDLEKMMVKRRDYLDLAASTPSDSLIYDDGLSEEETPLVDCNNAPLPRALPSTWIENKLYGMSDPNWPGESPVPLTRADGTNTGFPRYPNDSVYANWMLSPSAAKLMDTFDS
T11 sequence (Q15303 26-1308, species assumed): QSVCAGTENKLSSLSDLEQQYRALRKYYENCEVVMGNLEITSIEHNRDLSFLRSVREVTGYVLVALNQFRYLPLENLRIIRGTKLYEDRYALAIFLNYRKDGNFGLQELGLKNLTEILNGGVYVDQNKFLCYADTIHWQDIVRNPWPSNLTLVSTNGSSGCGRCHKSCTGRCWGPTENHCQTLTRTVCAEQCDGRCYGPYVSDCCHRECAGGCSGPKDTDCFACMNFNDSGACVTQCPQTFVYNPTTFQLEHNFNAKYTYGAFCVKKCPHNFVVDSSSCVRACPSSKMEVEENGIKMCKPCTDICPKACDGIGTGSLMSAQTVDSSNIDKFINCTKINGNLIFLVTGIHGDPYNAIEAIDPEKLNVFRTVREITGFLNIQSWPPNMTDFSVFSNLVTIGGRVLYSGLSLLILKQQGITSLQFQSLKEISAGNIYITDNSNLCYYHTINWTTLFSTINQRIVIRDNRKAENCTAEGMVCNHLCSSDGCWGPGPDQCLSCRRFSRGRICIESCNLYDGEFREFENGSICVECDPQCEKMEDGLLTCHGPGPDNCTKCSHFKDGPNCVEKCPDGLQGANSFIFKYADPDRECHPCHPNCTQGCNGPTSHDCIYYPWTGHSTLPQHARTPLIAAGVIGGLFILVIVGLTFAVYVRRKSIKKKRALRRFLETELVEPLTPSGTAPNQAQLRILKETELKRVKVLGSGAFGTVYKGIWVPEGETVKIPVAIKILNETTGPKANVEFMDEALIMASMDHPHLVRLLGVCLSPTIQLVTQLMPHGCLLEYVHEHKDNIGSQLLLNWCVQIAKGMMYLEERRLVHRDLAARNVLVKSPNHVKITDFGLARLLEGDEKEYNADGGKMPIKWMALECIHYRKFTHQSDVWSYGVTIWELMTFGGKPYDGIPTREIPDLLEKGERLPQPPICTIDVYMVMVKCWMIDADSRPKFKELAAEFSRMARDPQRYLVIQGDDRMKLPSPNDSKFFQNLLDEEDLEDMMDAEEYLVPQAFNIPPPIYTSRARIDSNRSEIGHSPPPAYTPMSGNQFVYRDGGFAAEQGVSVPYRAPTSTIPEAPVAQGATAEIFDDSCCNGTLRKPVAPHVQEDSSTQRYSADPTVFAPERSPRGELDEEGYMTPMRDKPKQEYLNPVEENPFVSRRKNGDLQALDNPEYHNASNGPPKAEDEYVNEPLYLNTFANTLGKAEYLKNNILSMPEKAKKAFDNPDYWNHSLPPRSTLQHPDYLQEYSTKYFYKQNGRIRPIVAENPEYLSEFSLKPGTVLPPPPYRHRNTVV
T1 sequence (P06239 whole entry, species assumed, the tested form may be a part): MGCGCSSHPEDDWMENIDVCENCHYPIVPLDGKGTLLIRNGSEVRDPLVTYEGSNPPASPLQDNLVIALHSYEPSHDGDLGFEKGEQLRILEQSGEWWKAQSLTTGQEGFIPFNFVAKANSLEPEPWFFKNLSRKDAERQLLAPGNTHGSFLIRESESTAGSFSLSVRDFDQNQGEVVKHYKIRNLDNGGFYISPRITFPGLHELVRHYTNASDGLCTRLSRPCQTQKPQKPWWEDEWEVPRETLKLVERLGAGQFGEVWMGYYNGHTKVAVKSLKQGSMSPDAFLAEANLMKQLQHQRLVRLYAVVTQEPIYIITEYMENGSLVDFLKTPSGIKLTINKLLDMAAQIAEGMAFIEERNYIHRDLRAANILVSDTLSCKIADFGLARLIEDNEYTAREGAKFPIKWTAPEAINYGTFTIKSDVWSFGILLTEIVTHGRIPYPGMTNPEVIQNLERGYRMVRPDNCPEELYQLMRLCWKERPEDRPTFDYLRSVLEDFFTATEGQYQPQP

Row | SMILES | IC50 (Lck) [µM] | IC50 (Lyn) [µM] | IC50 (Fyn) [µM] | IC50 (EGFR) [µM] | IC50 (Flt-1) [µM] | IC50 (Tek) [µM] | IC50 (c-Met) [µM] | IC50 (AKT) [µM] | IC50 (IGFR-1) [µM] | IC50 (EPHB4) [µM] | IC50 (ErbB4) [µM] | IC50 (Ret-1) [µM] | IC50 (FGFR1) [µM]
1 | COc1cc(Nc2ncnc(Nc3nc4ccccc4n3C)n2)cc(OC)c1OC [Compound 938] | > 11 | > 11 | > 11 | > 11 | 0.982 to 5.89 | > 11 | > 11 | > 11 | 5.89 to 8.59 | > 11 | 5.89 to 8.59 | > 11 | 0.982 to 5.89
2 | COCCOc1cc(Nc2ncnc(Nc3ccc(C)c(O)c3)n2)ccc1OC [Compound 127] | 1.01 to 6.04 | < 1.01 | < 1.01 | < 1.01 | < 1.01 | > 11.3 | > 11.3 | > 11.3 | 1.01 to 6.04 | 8.81 to 11.3 | 1.01 to 6.04 | < 1.01 | 1.01 to 6.04
3 | COc1cc(Nc2ncnc(Nc3ccc(Cl)cc3F)n2)cc(OC)c1OC [Compound 306] | 0.986 to 5.91 | < 0.986 | 0.986 to 5.91 | < 0.986 | 0.986 to 5.91 | > 11.1 | 5.91 to 8.62 | > 11.1 | < 0.986 | 0.986 to 5.91 | > 11.1 | < 0.986 | 0.986 to 5.91
4 | COCCOc1ccc(Nc2ncnc(-n3c(N)nc4ccccc43)n2)cc1OC [Compound 287] | 0.982 to 5.89 | > 11 | > 11 | 8.59 to 11 | > 11 | > 11 | > 11 | > 11 | < 0.982 | > 11 | > 11 | > 11 | 0.982 to 5.89
5 | COc1cc(Nc2ncnc(N3CCc4cc([N+](=O)[O-])ccc43)n2)cc(OC)c1OC [Compound 187] | > 10.6 | > 10.6 | > 10.6 | > 10.6 | > 10.6 | > 10.6 | > 10.6 | > 10.6 | > 10.6 | > 10.6 | 5.65 to 8.25 | > 10.6 | > 10.6
6 | CCOc1ccc(Nc2ncnc(Nc3ccc(C)c(O)c3)n2)cc1OCC [Compound 121] | 1.05 to 6.29 | < 1.05 | < 1.05 | 1.05 to 6.29 | < 1.05 | > 11.8 | 9.18 to 11.8 | > 11.8 | > 11.8 | > 11.8 | 1.05 to 6.29 | < 1.05 | 1.05 to 6.29

— patent US7074789B2, “Kinase inhibitors” (Amgen Inc., priority 1999, dated 2006)
